{
  "source": "paper PMC7997182",
  "about": "“Unravelling the Dermatological Potential of the Brown Seaweed Carpomitra costata” (Marine Drugs, 2021)",
  "key": {"collagenase (type IV)": {"target": "T1, collagenase (type IV)", "T1 construct": "gene colG; known from the kit", "test": "fluorogenic EnzChek gelatinase/collagenase kit", "format": "biochemical", "settings": "per kit instructions; positive control", "from_the_text": "fluorogenic EnzChek gelatinase/collagenase kit on collagenase (type IV)"}, "hyaluronidase": {"target": "T2, hyaluronidase", "T2 construct": "gene SPAM1", "test": "hyaluronic acid turbidity, absorbance […] nm", "format": "biochemical", "settings": "37 °C; hyaluronic acid substrate pH 5.35; reference compound; printed interval does not contain the value"}},
  "data": [
    {"smiles": "O=C(O[C@@H]1Cc2c(O)cc(O)cc2O[C@@H]1c1cc(O)c(O)c(O)c1)c1cc(O)c(O)c(O)c1", "note": "[EGCG, epigallocatechin gallate]", "values": [
      {"measurement": "Collagenase", "setting": "collagenase (type IV)", "value": "4.8 (4.1–5.5) µg/mL"},
      {"measurement": "Hyaluronidase", "setting": "hyaluronidase", "value": "119.1 (126.1–320.4) µg/mL"}
    ]}
  ]
}
